From the NIST ThermoML archive (doi:10.1016/j.fluid.2004.11.019)

Assay: xn = mol fraction of the nth substance listed
Conditions: 298.15 K, Liquid

CCO [ethanol] + O
mass density [kg/m3]
Conditions	10000 kPa	20000 kPa	30000 kPa
x1 = 0.003	–	1004.2	1008.5
x1 = 0.0042	–	1003.2	1007.4
x1 = 0.0082	–	1001.7	1005.9
x1 = 0.0119	–	1000.1	1004.3
x1 = 0.0158	–	998.2	1002.4
x1 = 0.0184	–	996.8	1000.9
x1 = 0.0219	–	995.9	1000.1
x1 = 0.0255	–	994.4	998.4
x1 = 0.0279	–	992.9	996.9
x1 = 0.0315	–	992.1	996.1
x1 = 0.0366	–	989.8	993.8
x1 = 0.0392	–	988.6	992.6
x1 = 0.0439	–	987.3	991.2
x1 = 0.0483	–	985.6	989.5
x1 = 0.0516	–	985.1	988.9
x1 = 0.0559	–	983.8	987.7
x1 = 0.06	–	982.4	986.3
x1 = 0.0652	–	980.8	984.7
x1 = 0.0679	–	980	983.9
x1 = 0.0722	–	978.7	982.6
x1 = 0.0801	–	976.2	980
x1 = 0.084	–	975.7	979.5
x1 = 0.0879	–	974.4	978.2
x1 = 0.0926	–	973.2	976.9
x1 = 0.0958	–	972.4	976.1
x1 = 0.1006	–	971	974.8
x1 = 0.1111	–	968	971.7
x1 = 0.1225	–	964.7	968.5
x1 = 0.1296	–	962.8	966.7
x1 = 0.1402	–	961.3	963.7
x1 = 0.151	–	956.6	960.5
x1 = 0.1601	–	953.9	957.9
x1 = 0.1703	–	950.9	955
x1 = 0.18	–	948.1	952.2
x1 = 0.1903	–	945.2	949.3
x1 = 0.1996	–	942.3	946.5
x1 = 0.2269	–	934.5	938.7
x1 = 0.2502	–	928	932.4
x1 = 0.2745	–	921.3	925.9
x1 = 0.3009	–	914.5	919.2
x1 = 0.35	–	902.3	–
x1 = 0.4034	–	890.4	–
x1 = 0.4501	–	880.4	–
x1 = 0.498	–	871.3	–
x1 = 0.5501	–	861.9	–
x1 = 0.5998	–	853.7	–
x1 = 0.6489	–	846	–
x1 = 0.6967	832.3	839	–
x1 = 0.7475	825.4	832.3	–
x1 = 0.7996	818.3	825.4	–
x1 = 0.8484	812.1	819.3	–
x1 = 0.8993	805.8	813.3	–
x1 = 0.9503	799.9	807.5	–
x1 = 1	794	801.9	–
